For five molecules, Ki and EC50 results are on record in US12252524B2, “GIP/GLP1 co-agonist compounds” (Eli Lilly and Company, priority 2018, dated 2025).

For orientation: Ki means a measure of affinity in units of concentration, obtained from inhibition or displacement. For orientation: EC50 means the concentration giving half of the maximal effect.

Each structure is given as a SMILES string. Numbered stars: 1 amine (or outer) side, 2 acyl side, 3 side chain; on linkers, the order of the positions; unused ones are H or OH. Square brackets hold non-standard residues; d marks the D form. Side chains are listed from the residue outwards. Peptide text beside a SMILES is read from it. * marks the point of attachment. C20 diacid = O=C(O)CCCCCCCCCCCCCCCCCCC(=O)*; αMePhe(2-F) = C[C@](N)(Cc1ccccc1F)C(=O)O; γGlu = O=C(O)[C@H](CCC(=O)[*:2])N[*:1]; αMeF = C[C@](N)(Cc1ccccc1)C(=O)O; αMeL = CC(C)C[C@](C)(N)C(=O)O; AEEA = NCCOCCOCC(=O)O; Aib = CC(C)(N)C(=O)O

For one test, the target named is human GLP-1R (Homo sapiens, UniProt P43220). Briefly: [125I]-GLP-1 binding (SPA), human GLP-1 receptor. Further details: expressed in transfected cells; crude membranes. The conditions noted are these: read-out: hGLP1R Ki, (nM) (SEM, n). An outline of the steps:
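Frozen cell pellets are lysed on ice in hypotonic Tris buffer, pH 7.5, homogenized, and centrifuged to a membrane pellet resuspended at about 1 to 3 mg/mL. Binding is then measured in HEPES-based buffer at pH 7.4, and curves are fitted to give IC50 and Ki.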

Another test addresses T1, human Gcg receptor (Homo sapiens, UniProt P47871).
T1 construct: expressed in transfected cells; crude membranes
Briefly: [125I]-Glucagon binding (SPA), human Gcg receptor. The conditions noted are these: read-out: hGLcgR Ki, nM (SEM, n). In short, it runs like this: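 Crude membranes from cells expressing the receptor, prepared by hypotonic lysis in 50 mM Tris HCl pH 7.5 with protease inhibitors, homogenization and differential centrifugation, were used in a WGA-bead SPA. Binding buffer: 25 mM HEPES pH 7.4, 2.5 mM CaCl2, 1 mM MgCl2, bacitracin, Tween-20.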

For test [1], the target named is human GLP-1 receptor (GLP-1R) (Homo sapiens, UniProt P43220). Briefly: cAMP pharmacological functional assay in presence of casein, hGLP-1R. The test is classed as cell-based. Conditions: HEK293 cells expressing hGLP-1R, 0.1% Casein, geometric mean; read-out: hGLP1R cAMP Rel EC50 nM (SEM, n).
The target in a further test is T2, human GIP receptor (Homo sapiens, UniProt P48546).
T2 construct: expressed in transfected cells; crude membranes
T2 sequence (P48546 22-466): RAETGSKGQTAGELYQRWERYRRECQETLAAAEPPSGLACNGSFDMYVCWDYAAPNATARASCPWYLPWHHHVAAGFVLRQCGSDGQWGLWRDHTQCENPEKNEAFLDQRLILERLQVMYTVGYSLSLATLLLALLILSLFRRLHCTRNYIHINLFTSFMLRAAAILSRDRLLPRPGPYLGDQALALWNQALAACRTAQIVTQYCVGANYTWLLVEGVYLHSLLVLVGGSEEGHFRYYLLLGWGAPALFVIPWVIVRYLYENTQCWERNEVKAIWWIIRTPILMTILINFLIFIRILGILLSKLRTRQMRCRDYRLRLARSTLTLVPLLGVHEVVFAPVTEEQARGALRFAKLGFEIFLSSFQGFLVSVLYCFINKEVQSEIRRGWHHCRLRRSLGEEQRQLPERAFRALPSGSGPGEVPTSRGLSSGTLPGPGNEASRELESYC
Briefly: [125I]-GIP binding (SPA), human GIP receptor. The conditions noted are these: read-out: hGIPR Ki, nM (SEM, n).

Test [2] deals with T3, gastric inhibitory peptide receptor (GIPR) (Homo sapiens, UniProt P48546).
T3 sequence (P48546 22-466): T2 sequence (P48546 22-466)
In words: cAMP pharmacological functional assay in presence of casein, hGIPR. It is filed as cell-based. The conditions noted are these: HEK293 cells expressing hGIPR, 0.1% Casein, geometric mean; read-out: hGIPR cAMP Rel EC50 nM (SEM, n).

Sequence of human GLP-1 receptor (GLP-1R) (P43220 24-463): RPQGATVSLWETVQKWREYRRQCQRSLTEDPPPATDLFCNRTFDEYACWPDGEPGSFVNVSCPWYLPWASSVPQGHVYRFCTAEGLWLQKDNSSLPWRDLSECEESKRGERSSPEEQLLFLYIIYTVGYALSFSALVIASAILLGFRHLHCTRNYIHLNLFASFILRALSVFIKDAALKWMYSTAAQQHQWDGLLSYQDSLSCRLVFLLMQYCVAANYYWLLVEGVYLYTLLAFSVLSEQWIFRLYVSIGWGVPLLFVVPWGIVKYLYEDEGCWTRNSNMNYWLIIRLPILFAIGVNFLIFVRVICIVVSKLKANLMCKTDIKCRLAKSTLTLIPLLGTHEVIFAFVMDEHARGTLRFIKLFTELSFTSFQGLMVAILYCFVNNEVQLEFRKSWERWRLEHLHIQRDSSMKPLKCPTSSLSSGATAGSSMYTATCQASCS
Sequence of human GLP-1R (P43220 24-463): as above
T1 sequence (P47871 26-477): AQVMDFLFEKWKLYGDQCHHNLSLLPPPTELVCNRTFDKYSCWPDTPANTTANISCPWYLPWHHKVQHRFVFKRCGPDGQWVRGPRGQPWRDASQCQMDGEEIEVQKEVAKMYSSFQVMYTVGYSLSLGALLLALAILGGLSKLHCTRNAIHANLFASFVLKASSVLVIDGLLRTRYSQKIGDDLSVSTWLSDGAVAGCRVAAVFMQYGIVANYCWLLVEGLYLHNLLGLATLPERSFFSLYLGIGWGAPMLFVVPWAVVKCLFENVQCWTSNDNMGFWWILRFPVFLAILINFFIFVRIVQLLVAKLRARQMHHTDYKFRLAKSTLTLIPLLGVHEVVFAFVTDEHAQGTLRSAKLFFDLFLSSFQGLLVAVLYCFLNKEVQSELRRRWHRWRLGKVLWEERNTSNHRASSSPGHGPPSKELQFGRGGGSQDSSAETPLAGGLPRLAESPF

`CC[C@H](C)[C@H](NC(=O)[C@H](CC(C)C)NC(=O)[C@H](Cc1ccc(O)cc1)NC(=O)[C@@H](CCC(=O)O)NC(=O)[C@@H](NC(=O)[C@H](Cc1ccccc1)NC(=O)[C@H](CCC(=O)O)NC(=O)C(C)(C)NC(=O)[C@H](CCC(N)=O)NC(=O)[C@H](C)NC(=O)[C@H](CCCCNC(=O)COCCOCCNC(=O)COCCOCCNC(=O)CCCCCCCCCCCCCCCCCCC(=O)O)NC(=O)[C@H](CCC(=O)O)NC(=O)[C@H](CC(=O)O)NC(=O)[C@H](CC(C)C)NC(=O)[C@](C)(CC(C)C)NC(=O)[C@@H](NC(=O)[C@H](CO)NC(=O)[C@H](Cc1ccc(O)cc1)NC(=O)[C@H](CC(=O)O)NC(=O)[C@H](CO)NC(=O)[C@@H](NC(=O)[C@](C)(Cc1ccccc1F)NC(=O)[C@@H](NC(=O)CNC(=O)[C@H](CCC(=O)O)NC(=O)C(C)(C)NC(=O)[C@@H](N)Cc1ccc(O)cc1)[C@@H](C)O)[C@@H](C)O)[C@@H](C)CC)[C@@H](C)CC)C(=O)N[C@@H](CCC(=O)O)C(=O)NCC(=O)NCC(=O)N1CCC[C@H]1C(=O)N[C@@H](CO)C(=O)N[C@@H](CO)C(=O)NCC(=O)N[C@@H](C)C(=O)N1CCC[C@H]1C(=O)N1CCC[C@H]1C(=O)N1CCC[C@H]1C(=O)N[C@@H](CO)C(N)=O` [Example 215] (H-Y[Aib]EGT[αMePhe(2-F)]TSDYSI[αMeL]LDEK([AEEA-AEEA-C20 diacid])AQ[Aib]EFI[dE]YLIEGGPSSGAPPPS-NH2): the Ki amounted to 6.85 nM at human GLP-1R, 75.2 nM at human Gcg receptor and 0.0666 nM on human GIP receptor. In addition, the EC50 was 0.0529 nM in test [1] and 0.0525 nM in test [2].
`CC[C@H](C)[C@H](NC(=O)[C@H](CC(C)C)NC(=O)[C@H](Cc1ccc(O)cc1)NC(=O)[C@H](CCC(=O)O)NC(=O)[C@@H](NC(=O)[C@H](Cc1ccccc1)NC(=O)[C@H](C)NC(=O)C(C)(C)NC(=O)[C@H](CCC(N)=O)NC(=O)[C@H](C)NC(=O)[C@H](CCCCNC(=O)COCCOCCNC(=O)COCCOCCNC(=O)CC[C@H](NC(=O)CCCCCCCCCCCCCCCCCCC(=O)O)C(=O)O)NC(=O)[C@H](CCCCN)NC(=O)[C@H](CC(=O)O)NC(=O)[C@H](CC(C)C)NC(=O)[C@H](CC(C)C)NC(=O)[C@@H](NC(=O)[C@H](CO)NC(=O)[C@H](CC(C)C)NC(=O)[C@H](CC(=O)O)NC(=O)[C@H](CO)NC(=O)[C@@H](NC(=O)[C@](C)(Cc1ccccc1)NC(=O)[C@@H](NC(=O)CNC(=O)[C@H](CCC(=O)O)NC(=O)C(C)(C)NC(=O)[C@@H](N)Cc1ccc(O)cc1)[C@@H](C)O)[C@@H](C)O)[C@@H](C)CC)[C@@H](C)CC)C(=O)N[C@@H](CCC(=O)O)C(=O)NCC(=O)NCC(=O)N1CCC[C@H]1C(=O)N[C@@H](CO)C(=O)N[C@@H](CO)C(=O)NCC(=O)N[C@@H](C)C(=O)N1CCC[C@H]1C(=O)N1CCC[C@H]1C(=O)N1CCC[C@H]1C(=O)N[C@@H](CO)C(N)=O` [Example 129] (H-Y[Aib]EGT[αMeF]TSDLSILLDKK([AEEA-AEEA-γGlu-C20 diacid])AQ[Aib]AFIEYLIEGGPSSGAPPPS-NH2): the Ki worked out at 1 nM at human GLP-1R, 14.9 nM at human Gcg receptor and 0.0278 nM on human GIP receptor. Further, the EC50 turned out to be 0.121 nM in test [1] and 0.106 nM in test [2].
As to `CC[C@H](C)[C@H](NC(=O)[C@H](CC(C)C)NC(=O)[C@H](Cc1ccc(O)cc1)NC(=O)[C@H](CCC(=O)O)NC(=O)[C@@H](NC(=O)[C@](C)(Cc1ccccc1)NC(=O)[C@H](C)NC(=O)C(C)(C)NC(=O)[C@H](CCC(N)=O)NC(=O)[C@H](C)NC(=O)[C@H](CCCCNC(=O)COCCOCCNC(=O)COCCOCCNC(=O)CC[C@H](NC(=O)CCCCCCCCCCCCCCCCCCC(=O)O)C(=O)O)NC(=O)[C@H](CCCCN)NC(=O)[C@H](CC(=O)O)NC(=O)[C@H](CC(C)C)NC(=O)[C@H](CC(C)C)NC(=O)[C@@H](NC(=O)[C@H](CO)NC(=O)[C@H](Cc1ccc(O)cc1)NC(=O)[C@H](CC(=O)O)NC(=O)[C@H](CO)NC(=O)[C@@H](NC(=O)[C@H](Cc1ccccc1)NC(=O)[C@@H](NC(=O)CNC(=O)[C@H](CCC(=O)O)NC(=O)C(C)(C)NC(=O)[C@@H](N)Cc1ccc(O)cc1)[C@@H](C)O)[C@@H](C)O)[C@@H](C)CC)[C@@H](C)CC)C(=O)N[C@@H](CCC(=O)O)C(=O)NCC(=O)NCC(=O)N1CCC[C@H]1C(=O)N[C@@H](CO)C(=O)N[C@@H](CO)C(=O)NCC(=O)N[C@@H](C)C(=O)N1CCC[C@H]1C(=O)N1CCC[C@H]1C(=O)N1CCC[C@H]1C(=O)N[C@@H](CO)C(N)=O` [Example 67], the Ki on human GLP-1R came to 10.2 nM; at human Gcg receptor, 270 nM; on human GIP receptor, 0.061 nM. Further, the results for the EC50 in test [1] and in test [2] were 0.447 nM and 0.0913 nM, respectively.
In the case of `CC[C@H](C)[C@H](NC(=O)[C@H](Cc1ccccc1)NC(=O)[C@H](C)NC(=O)C(C)(C)NC(=O)[C@H](CCC(N)=O)NC(=O)[C@H](C)NC(=O)[C@H](CCCCNC(=O)COCCOCCNC(=O)COCCOCCNC(=O)CC[C@H](NC(=O)CCCCCCCCCCCCCCCCCCC(=O)O)C(=O)O)NC(=O)[C@H](CCCCN)NC(=O)[C@H](CC(=O)O)NC(=O)[C@H](CC(C)C)NC(=O)[C@](C)(CC(C)C)NC(=O)[C@@H](NC(=O)[C@H](CO)NC(=O)[C@H](Cc1ccc(O)cc1)NC(=O)[C@H](CC(=O)O)NC(=O)[C@H](CO)NC(=O)[C@@H](NC(=O)[C@H](Cc1ccccc1)NC(=O)[C@@H](NC(=O)CNC(=O)[C@H](CCC(=O)O)NC(=O)C(C)(C)NC(=O)[C@@H](N)Cc1ccc(O)cc1)[C@@H](C)O)[C@@H](C)O)[C@@H](C)CC)C(=O)N[C@@H](CCC(=O)O)C(=O)N[C@@H](Cc1ccc(O)cc1)C(=O)N[C@@](C)(CC(C)C)C(=O)N[C@H](C(=O)N[C@@H](CCC(=O)O)C(=O)NCC(=O)NCC(=O)N1CCC[C@H]1C(=O)N[C@@H](CO)C(=O)N[C@@H](CO)C(=O)NCC(=O)N[C@@H](C)C(=O)N1CCC[C@H]1C(=O)N1CCC[C@H]1C(=O)N1CCC[C@H]1C(=O)N[C@@H](CO)C(N)=O)[C@@H](C)CC` [Example 75], the Ki on human GLP-1R was 24.4 nM; on human Gcg receptor, 283 nM; on human GIP receptor, 0.103 nM. Also, the EC50 in test [1] was 1.49 nM; in test [2], 0.214 nM.
Taken in the same sequence, the figures for `CC[C@H](C)[C@H](NC(=O)[C@H](CC(C)C)NC(=O)C(C)(Cc1ccc(O)cc1)NC(=O)[C@@H](CCC(=O)O)NC(=O)[C@@H](NC(=O)[C@H](Cc1ccccc1)NC(=O)[C@H](CCC(=O)O)NC(=O)C(C)(C)NC(=O)[C@H](CCC(N)=O)NC(=O)[C@H](C)NC(=O)[C@H](CCCCNC(=O)COCCOCCNC(=O)COCCOCCNC(=O)CC[C@H](NC(=O)CCCCCCCCCCCCCCCCC(=O)O)C(=O)O)NC(=O)[C@H](CCCN)NC(=O)[C@H](CC(=O)O)NC(=O)[C@H](CC(C)C)NC(=O)C(C)(CC(C)C)NC(=O)[C@@H](NC(=O)[C@H](CO)NC(=O)[C@H](Cc1ccncc1)NC(=O)[C@H](CC(=O)O)NC(=O)[C@H](CO)NC(=O)[C@@H](NC(=O)C(C)(Cc1ccccc1F)NC(=O)[C@@H](NC(=O)CNC(=O)[C@H](CCC(=O)O)NC(=O)C(C)(C)NC(=O)[C@@H](N)Cc1ccc(O)cc1)[C@@H](C)O)[C@@H](C)O)[C@@H](C)CC)[C@@H](C)CC)C(=O)N[C@@H](CCC(=O)O)C(=O)NCC(=O)NCC(N)=O` (stereo partly shown) [Example 265] were 0.537 nM, 567 nM, 0.0224 nM, 0.0223 nM and 0.0229 nM.
